{"source": "ChEMBL document CHEMBL4673230", "about": "“Total Synthesis of Natural Lembehyne C and Investigation of Its Cytotoxic Properties” (J Nat Prod, 2020)", "key": {"Jurkat [1]": {"system": "Jurkat", "test": "Induction of apoptosis in human Jurkat cells assessed as late apoptotic cells at 100 nM after 24 hrs by Annexin V/7-AAD staining.based flow cytometric analysis relative to control", "assay_type": "functional"}, "Jurkat [2]": {"system": "Jurkat", "test": "Induction of mitochondrial membrane potential loss in human Jurkat cells assessed as late apoptotic cells at 400 nM after 4 hrs by MitoSense Red/7-AAD. flow cytometric analysis relative to control", "assay_type": "functional"}, "Jurkat [3]": {"system": "Jurkat", "test": "Induction of apoptosis in human Jurkat cells assessed as late apoptotic cells at 400 nM after 24 hrs by Annexin V/7-AAD staining.based flow cytometric analysis relative to control", "assay_type": "functional"}, "Jurkat [4]": {"system": "Jurkat", "test": "Induction of ROS generation in human Jurkat cells assessed as mitochondria damaged cells at 200 nM after 24 hrs by MitoSox Red/annexin V-CF488A staining based flow cytometric analysis (reference value: 0%)", "assay_type": "functional"}, "[5]": {"test": "Effect on total NFKappaB level in human jurkat cells at 400 nM by magnetic bead based immunoassay", "assay_type": "cell-based", "conditions": "0.4 µM"}, "Jurkat [6]": {"system": "Jurkat", "test": "Induction of mitochondrial membrane potential loss in human Jurkat cells assessed as live cells at 400 nM after 4 hrs by MitoSense Red/7-AAD. flow cytometric analysis relative to control", "assay_type": "functional"}, "Jurkat [7]": {"system": "Jurkat", "test": "Induction of apoptosis in human Jurkat cells assessed as early apoptotic cells at 400 nM after 24 hrs by Annexin V/7-AAD staining.based flow cytometric analysis relative to control", "assay_type": "functional"}, "Jurkat [8]": {"system": "Jurkat", "test": "Induction of cell cycle arrest in human Jurkat cells assessed as accumulation at sub-G1 phase at 200 nM after 24 hrs by Guava Cell Cycle reagent based flow cytometric analysis relative to control", "assay_type": "functional"}, "Jurkat [9]": {"system": "Jurkat", "test": "Induction of ROS generation in human Jurkat cells at 200 nM after 2 hrs by MitoSox Red/annexin V-CF488A staining based flow cytometric analysis relative to control", "assay_type": "functional"}, "Jurkat [10]": {"system": "Jurkat", "test": "Induction of cell cycle arrest in human Jurkat cells assessed as accumulation at G1 phase at 100 nM after 24 hrs by Guava Cell Cycle reagent based flow cytometric analysis relative to control", "assay_type": "functional"}, "[11]": {"test": "Effect on total AKT level in human jurkat cells at 400 nM by magnetic bead based immunoassay", "assay_type": "cell-based", "conditions": "0.4 µM"}, "HL-60": {"system": "HL-60", "test": "Cytotoxicity against human HL-60 cells assessed as reduction in cell viability by 7-AAD staining based flow cytometric analysis", "assay_type": "functional"}, "Jurkat [12]": {"system": "Jurkat", "test": "Induction of mitochondrial membrane potential loss in human Jurkat cells assessed as live cells at 200 nM after 4 hrs by MitoSense Red/7-AAD. flow cytometric analysis relative to control", "assay_type": "functional"}, "[13]": {"test": "Effect on total ERK1/2 level in human jurkat cells at 400 nM by magnetic bead based immunoassay", "assay_type": "cell-based", "conditions": "0.4 µM"}, "[14]": {"test": "Effect on total p38 level in human jurkat cells at 400 nM by magnetic bead based immunoassay", "assay_type": "cell-based", "conditions": "0.4 µM"}, "K562": {"system": "K562", "test": "Cytotoxicity against human K562 cells assessed as reduction in cell viability by 7-AAD staining based flow cytometric analysis", "assay_type": "functional"}, "Jurkat [15]": {"system": "Jurkat", "test": "Induction of apoptosis in human Jurkat cells assessed as late apoptotic cells at 200 nM after 24 hrs by Annexin V/7-AAD staining.based flow cytometric analysis relative to control", "assay_type": "functional"}, "Jurkat [16]": {"system": "Jurkat", "test": "Induction of cell cycle arrest in human Jurkat cells assessed as accumulation at G1 phase at 50 nM after 24 hrs by Guava Cell Cycle reagent based flow cytometric analysis relative to control", "assay_type": "functional"}, "Jurkat [17]": {"system": "Jurkat", "test": "Induction of ROS generation in human Jurkat cells assessed as apoptotic cells at 200 nM after 4 hrs by MitoSox Red/annexin V-CF488A staining based flow cytometric analysis (reference value: 3.18%)", "assay_type": "functional"}, "Jurkat [18]": {"system": "Jurkat", "test": "Induction of cell cycle arrest in human Jurkat cells assessed as accumulation at G2 phase at 50 nM after 24 hrs by Guava Cell Cycle reagent based flow cytometric analysis relative to control", "assay_type": "functional"}, "Jurkat [19]": {"system": "Jurkat", "test": "Induction of mitochondrial membrane potential loss in human Jurkat cells assessed as late apoptotic cells at 200 nM after 4 hrs by MitoSense Red/7-AAD. flow cytometric analysis relative to control", "assay_type": "functional"}, "Jurkat [20]": {"system": "Jurkat", "test": "Induction of cell cycle arrest in human Jurkat cells assessed as accumulation at G2/G1 phase at 400 nM after 24 hrs by Guava Cell Cycle reagent based flow cytometric analysis relative to control", "assay_type": "functional"}, "Jurkat [21]": {"system": "Jurkat", "test": "Cytotoxicity against human Jurkat cells assessed as reduction in cell viability by 7-AAD staining based flow cytometric analysis", "assay_type": "functional"}, "Jurkat [22]": {"system": "Jurkat", "test": "Induction of apoptosis in human Jurkat cells assessed as early apoptotic cells at 50 nM after 24 hrs by Annexin V/7-AAD staining.based flow cytometric analysis relative to control", "assay_type": "functional"}, "Jurkat [23]": {"system": "Jurkat", "test": "Induction of apoptosis in human Jurkat cells assessed as early apoptotic cells at 200 nM after 24 hrs by Annexin V/7-AAD staining.based flow cytometric analysis relative to control", "assay_type": "functional"}, "[24]": {"test": "Effect on total JNK in human jurkat cells at 400 nM by magnetic bead based immunoassay", "assay_type": "cell-based", "conditions": "0.4 µM"}, "Jurkat [25]": {"system": "Jurkat", "test": "Induction of ROS generation in human Jurkat cells assessed as living undamaged cells at 200 nM after 2 hrs by MitoSox Red/annexin V-CF488A staining based flow cytometric analysis (reference value: 95.44%)", "assay_type": "functional"}, "Jurkat [26]": {"system": "Jurkat", "test": "Induction of mitochondrial membrane potential loss in human Jurkat cells assessed as early apoptotic cells at 400 nM after 4 hrs by MitoSense Red/7-AAD. flow cytometric analysis relative to control", "assay_type": "functional"}, "Jurkat [27]": {"system": "Jurkat", "test": "Induction of cell cycle arrest in human Jurkat cells assessed as accumulation at G2 phase at 200 nM after 24 hrs by Guava Cell Cycle reagent based flow cytometric analysis relative to control", "assay_type": "functional"}, "Jurkat [28]": {"system": "Jurkat", "test": "Induction of cell cycle arrest in human Jurkat cells assessed as accumulation at sub-G1 phase at 50 nM after 24 hrs by Guava Cell Cycle reagent based flow cytometric analysis relative to control", "assay_type": "functional"}, "[29]": {"test": "Effect on total STAT3 level in human jurkat cells at 400 nM by magnetic bead based immunoassay", "assay_type": "cell-based", "conditions": "0.4 µM"}, "Jurkat [30]": {"system": "Jurkat", "test": "Induction of apoptosis in human Jurkat cells assessed as viable cells at 400 nM after 24 hrs by Annexin V/7-AAD staining.based flow cytometric analysis relative to control", "assay_type": "functional", "conditions": "read-out: Activity"}, "[31]": {"test": "Effect on total CREB level in human jurkat cells at 400 nM by magnetic bead based immunoassay", "assay_type": "cell-based", "conditions": "0.4 µM"}, "Jurkat [32]": {"system": "Jurkat", "test": "Induction of cell cycle arrest in human Jurkat cells assessed as accumulation at super-G2 phase at 400 nM after 24 hrs by Guava Cell Cycle reagent based flow cytometric analysis relative to control", "assay_type": "functional"}, "Jurkat [33]": {"system": "Jurkat", "test": "Induction of apoptosis in human Jurkat cells assessed as necrotic cells at 50 nM after 24 hrs by Annexin V/7-AAD staining.based flow cytometric analysis relative to control", "assay_type": "functional"}, "Jurkat [34]": {"system": "Jurkat", "test": "Induction of cell cycle arrest in human Jurkat cells assessed as accumulation at sub-G1 phase at 400 nM after 24 hrs by Guava Cell Cycle reagent based flow cytometric analysis relative to control", "assay_type": "functional"}, "Jurkat [35]": {"system": "Jurkat", "test": "Induction of apoptosis in human Jurkat cells assessed as necrotic cells at 100 nM after 24 hrs by Annexin V/7-AAD staining.based flow cytometric analysis relative to control", "assay_type": "functional"}, "Jurkat [36]": {"system": "Jurkat", "test": "Induction of cell cycle arrest in human Jurkat cells assessed as accumulation at super-G2 phase at 50 nM after 24 hrs by Guava Cell Cycle reagent based flow cytometric analysis relative to control", "assay_type": "functional"}, "Jurkat [37]": {"system": "Jurkat", "test": "Induction of cell cycle arrest in human Jurkat cells assessed as accumulation at S phase at 100 nM after 24 hrs by Guava Cell Cycle reagent based flow cytometric analysis relative to control", "assay_type": "functional"}}}
{"smiles": "C#C[C@H](O)CCCCCCCCC/C=C\\CC/C=C\\CC/C=C\\CCCCCCCCCCCCCCCC", "values": [{"measurement": "Activity", "setting": "Jurkat [1]", "result": 39.78, "unit": "%"}, {"measurement": "Activity", "setting": "Jurkat [2]", "result": 2.87, "unit": "%"}, {"measurement": "Activity", "setting": "Jurkat [3]", "result": 50.24, "unit": "%"}, {"measurement": "Activity", "setting": "Jurkat [4]", "result": 0, "unit": "%"}, {"measurement": "Activity", "setting": "[5]", "result": "Toxic"}, {"measurement": "Activity", "setting": "Jurkat [6]", "result": 63.45, "unit": "%"}, {"measurement": "Activity", "setting": "Jurkat [7]", "result": 15.86, "unit": "%"}, {"measurement": "Activity", "setting": "Jurkat [8]", "result": 18.01, "unit": "%"}, {"measurement": "Activity", "setting": "Jurkat [9]", "result": 25.4, "unit": "%"}, {"measurement": "Activity", "setting": "Jurkat [10]", "result": 34.96, "unit": "%"}, {"measurement": "Activity", "setting": "[11]", "result": "Toxic"}, {"measurement": "IC50", "setting": "HL-60", "result": 93, "unit": "nM"}, {"measurement": "Activity", "setting": "Jurkat [12]", "result": 95.64, "unit": "%"}, {"measurement": "Activity", "setting": "[13]", "result": "Toxic"}, {"measurement": "Activity", "setting": "[14]", "result": "Toxic"}, {"measurement": "IC50", "setting": "K562", "result": 373, "unit": "nM"}, {"measurement": "Activity", "setting": "Jurkat [15]", "result": 43.15, "unit": "%"}, {"measurement": "Activity", "setting": "Jurkat [16]", "result": 44.65, "unit": "%"}, {"measurement": "Activity", "setting": "Jurkat [17]", "result": 3.67, "unit": "%"}, {"measurement": "Activity", "setting": "Jurkat [18]", "result": 5.09, "unit": "%"}, {"measurement": "Activity", "setting": "Jurkat [19]", "result": 0.84, "unit": "%"}, {"measurement": "Activity", "setting": "Jurkat [20]", "result": 1.93, "unit": "%"}, {"measurement": "IC50", "setting": "Jurkat [21]", "result": 161, "unit": "nM"}, {"measurement": "Activity", "setting": "Jurkat [22]", "result": 14.25, "unit": "%"}, {"measurement": "Activity", "setting": "Jurkat [23]", "result": 13.2, "unit": "%"}, {"measurement": "Activity", "setting": "[24]", "result": "Toxic"}, {"measurement": "Activity", "setting": "Jurkat [25]", "result": 70.77, "unit": "%"}, {"measurement": "Activity", "setting": "Jurkat [26]", "result": 3.32, "unit": "%"}, {"measurement": "Activity", "setting": "Jurkat [27]", "result": 8.65, "unit": "%"}, {"measurement": "Activity", "setting": "Jurkat [28]", "result": 10.76, "unit": "%"}, {"measurement": "Activity", "setting": "[29]", "result": "Toxic"}, {"measurement": "viability at 0.4 µM", "setting": "Jurkat [30]", "result": 32.9, "unit": "%"}, {"measurement": "Activity", "setting": "[31]", "result": "Toxic"}, {"measurement": "Activity", "setting": "Jurkat [32]", "result": 1.85, "unit": "%"}, {"measurement": "Activity", "setting": "Jurkat [33]", "result": 2.4, "unit": "%"}, {"measurement": "Activity", "setting": "Jurkat [34]", "result": 16.56, "unit": "%"}, {"measurement": "Activity", "setting": "Jurkat [35]", "result": 5.89, "unit": "%"}, {"measurement": "Activity", "setting": "Jurkat [36]", "result": 1.35, "unit": "%"}, {"measurement": "Activity", "setting": "Jurkat [37]", "result": 30.33, "unit": "%"}]}
